Laboratory results taken from patent US12473258B2, “Crystal form of pyridinylphenyl compound and preparation method therefor” (ZHUHAI UNITED LABORATORIES CO., LTD., priority 2020, dated 2025).

What was measured:
[1] = Tolerability of eye drops after administration in animals; format: in vivo; conditions: eye drops with the highest concentration
[2] = 25° C. competition experiment of water activity (suspension and beating, XRPD); format: physicochemical; conditions: competition of crystal form B and crystal form C
Method: If the solution was clear, the compound was continued to add until the solution was saturated. […] After addition of a magnetic stir bar, the above suspension sample was placed on a constant temperature mixer (25° C., 700 rpm) for shaking.
And the products obtained with water activity of 0.9 and 1.0 were characterized after drying, and the two were almost the same.

[3] = tested on: dry eye model of rat induced by hypertonic sodium chloride solution; experiment: Hyperosmolar dry eye model of rats induced by hypertonic sodium chloride solution, eye drop administration; format: in vivo, SD rats
Method: 20 female SD rats qualified for the adaptability observation were subjected to the scoring of fluorescent staining of the cornea and measurement of tear secretion amount of both eyes for the animals, and animals with abnormalities of problematic fluorescent staining of the cornea and significant differences in tear secretion amount were excluded.
A pipette was used to draw 20 μL of sodium chloride solution (osmotic pressure of 500 mOsmol/L), which was dropped into the conjunctival sac of both eyes of the animal, 5 times/day, 20 μL/time, with an interval of about 2 hours between each time, for 28 consecutive days. After dropping the solution, the animal's eyelids were passively closed for about 90 s. On the 14th day of the modeling period, the animals were subjected to scoring of fluorescent staining of the cornea of both eyes and measurement of tear secretion amount, and the data were compared with the basic data, and the animals with significant differences in tear secretion amount of both eyes were selected for grouping.
, the tear secretion amount of both eyes was measured, and the scoring of fluorescent staining of the cornea […]

[4] = Pre-stability experiment of the crystal form (influencing factors and accelerated conditions, crystal form by XRPD); format: physicochemical
Method: X-Ray Powder Diffractometer (XRPD) Method in the Present Disclosure
Instrument model: Bruker D8 Advance X-ray diffractometer
Test method: About 10 mg of sample is used for XRPD test.
The detailed XRPD parameters are as follows:
The samples were fully exposed. Samples under the test condition of 40° C., 25° C./92.5% RH, light, light control were taken at 5 days and 10 days for analysis, and samples under the accelerated condition were taken at 1 month, 2 months and 3 months for analysis.

[5] = tested on: dry eye model of mice induced by scopolamine hydrobromide solution; experiment: Dry eye model of mice induced by subcutaneous scopolamine hydrobromide solution, eye drop administration; format: in vivo, C57BL/6 mice
Method: The grouping day was recorded as DO. After divided into groups, Animals in each group were subjected to modeling, eye drop administration, scoring of corneal fluorescent staining, tear secretion measurement, etc., according to the experimental settings.

[6] = rats, 1 mg/mL eye drops (G2), D0
[7] = rats, 1 mg/mL eye drops (G2), D14
[8] = rats, 1 mg/mL eye drops (G2), D21
[9] = rats, 5 mg/mL eye drops (G3), D0
[10] = rats, 5 mg/mL eye drops (G3), D14
[11] = rats, 5 mg/mL eye drops (G3), D21
[12] = mice, 1 mg/mL eye drops (G3), D0 (grouping day)
[13] = mice, 1 mg/mL eye drops (G3), D7
[14] = mice, 1 mg/mL eye drops (G3), D12
[15] = mice, 2.5 mg/mL eye drops (G4), D0 (grouping day)
[16] = mice, 2.5 mg/mL eye drops (G4), D7
[17] = mice, 2.5 mg/mL eye drops (G4), D12
[18] = mice, 5 mg/mL eye drops (G5), D0 (grouping day)
[19] = mice, 5 mg/mL eye drops (G5), D7
[20] = mice, 5 mg/mL eye drops (G5), D12

Crystal Form ([4]; 25° C./92.5% RH (open), 5 days): Crystal Form B | Crystal Form ([4]; 25° C./92.5% RH (open), 10 days): Crystal Form B | Crystal Form ([4]; 40° C. (open), 1 month): Crystal Form B | Crystal Form ([4]; 40° C. (open), 10 days): Crystal Form B | Crystal Form ([4]; 40° C./75% RH (open), 1 month): Crystal Form B | Crystal Form ([4]; 40° C./75% RH (open), 2 month): Crystal Form B | Crystal Form ([4]; 40° C./75% RH (open), 3 month): Crystal Form B | Crystal Form ([4]; 60° C./75% RH (open), 1 month): Crystal Form B | Crystal Form ([4]; 60° C./75% RH (open), 2 month): Crystal Form B | Crystal Form ([4]; 60° C./75% RH (open), 3 month): Crystal Form B | Stability of the crystal form (conclusion) ([4]; influencing factors 10 days, 40° C. 1 month, 40° C./75% RH and 60° C./75% RH 3 months): stable | Crystal Form ([4]; light (visible light intensity 5000 lux and ultraviolet intensity 90 W/cm^2, open), 10 days): Crystal Form B | Crystal Form ([4]; light control, 10 days): Crystal Form B
SMILES: CC(C)(O)c1ccc(-c2cnc(C(C)(C)O)c(N)c2)cc1N
Discomfort in animals after administration of the eye drops [1]: do not cause any discomfort | Relative stability of crystal forms (conclusion) [2]: more stable than the crystal form C of the compound of formula (I) | Therapeutic effect on the dry eye model of rat (tear secretion amount, corneal damage, tear film breakup time) ([3]; eye drops 1 mg/mL, 5 mg/mL): good therapeutic effect | Scoring of fluorescent staining of the cornea [3, 6]: 0.00 ± 0.00 | Tear secretion amount: wetted length of phenol red cotton thread [3, 6]: 13.78 ± 5.25 mm | Scoring of fluorescent staining of the cornea [3, 7]: 4.75 ± 3.73 | Tear secretion amount: wetted length of phenol red cotton thread [3, 7]: 8.12 ± 2.81 mm | Scoring of fluorescent staining of the cornea [3, 8]: 3.00 ± 2.78 | Tear secretion amount: wetted length of phenol red cotton thread [3, 8]: 9.24 ± 4.07 mm | Scoring of fluorescent staining of the cornea [3, 9]: 0.13 ± 0.35 | Tear secretion amount: wetted length of phenol red cotton thread [3, 9]: 13.87 ± 4.45 mm | Scoring of fluorescent staining of the cornea [3, 10]: 3.88 ± 2.36 | Tear secretion amount: wetted length of phenol red cotton thread [3, 10]: 7.16 ± 2.77 mm | Scoring of fluorescent staining of the cornea [3, 11]: 1.75 ± 1.49 | Tear secretion amount: wetted length of phenol red cotton thread [3, 11]: 11.37 ± 3.26 mm | Tear film breakup time ([3]; rats, eye drops): improved | Therapeutic effect on the dry eye model of mice (tear secretion amount and corneal damage) ([5]; eye drops 1 mg/mL, 2.5 mg/mL, 5 mg/mL): good therapeutic effect | Scoring of fluorescent staining of the cornea [5, 12]: 0.50 ± 0.97 | Tear secretion amount: wetted length of phenol red cotton thread [5, 12]: 4.54 ± 1.84 mm | Scoring of fluorescent staining of the cornea [5, 13]: 2.56 ± 1.50##**& | Tear secretion amount: wetted length of phenol red cotton thread [5, 13]: 2.13 ± 0.69##**& mm | Scoring of fluorescent staining of the cornea [5, 14]: 2.31 ± 1.35##**& | Tear secretion amount: wetted length of phenol red cotton thread [5, 14]: 2.72 ± 0.91##**&& mm | Scoring of fluorescent staining of the cornea [5, 15]: 0.31 ± 0.87 | Tear secretion amount: wetted length of phenol red cotton thread [5, 15]: 4.30 ± 1.08 mm | Scoring of fluorescent staining of the cornea [5, 16]: 2.88 ± 2.53 | Tear secretion amount: wetted length of phenol red cotton thread [5, 16]: 2.14 ± 0.69##**& mm | Scoring of fluorescent staining of the cornea [5, 17]: 2.56 ± 1.55 | Tear secretion amount: wetted length of phenol red cotton thread [5, 17]: 2.58 ± 0.82##**& mm | Scoring of fluorescent staining of the cornea [5, 18]: 0.25 ± 0.58 | Tear secretion amount: wetted length of phenol red cotton thread [5, 18]: 4.28 ± 1.41 mm | Scoring of fluorescent staining of the cornea [5, 19]: 2.38 ± 2.09##**& | Tear secretion amount: wetted length of phenol red cotton thread [5, 19]: 2.73 ± 0.48##**&& mm | Scoring of fluorescent staining of the cornea [5, 20]: 2.38 ± 1.20##**& | Tear secretion amount: wetted length of phenol red cotton thread [5, 20]: 2.85 ± 0.57##**&& mm | Concentration of eye drops with the best therapeutic effect ([5]; mice, combining tear secretion amount and corneal staining score): 5 mg/mL
